Test results from the OligoGym collection.
“And” between values parts separate entries of the source, which are not always exact repeats. Equal values may be shown once. After the bases stand the sugars from the 5' end (letter, count) and the backbone: PS all phosphorothioate, else s phosphorothioate and o phosphodiester by linkage. Methylation of C is not given here. k = constrained ethyl (cEt); d = 2'-deoxy (DNA)

Target: MALAT1
Conditions: ASO, A431, 0.005 µM

Sequence	target mRNA inhibition
CAGACAAGATTCATGA (sugars k3 d10 k3, PS)	19%
GCCCCCCACGGCCCGC (sugars k3 d10 k3, PS)	10%
CAACTCTTCTGATAAC (sugars k3 d10 k3, PS)	16%
AAGAGCATTGGAGATC (sugars k3 d10 k3, PS)	33%
TGACTGAATATGAACC (sugars k3 d10 k3, PS)	41%
GTCCAATGCAAAAACA (sugars k3 d10 k3, PS)	-5%
TTATCAATTCACCAAG (sugars k3 d10 k3, PS)	25%
CCTGAAGACAGATTAG (sugars k3 d10 k3, PS)	24%
GCCCTTCTATTGGTAT (sugars k3 d10 k3, PS)	-3%
TTCCGCTCAAATCCTG (sugars k3 d10 k3, PS)	35%
ATTATGGATCATGCCC (sugars k3 d10 k3, PS)	17%
ACGGCCCGCACGGAAA (sugars k3 d10 k3, PS)	16%
TGGTCTAGGATCCTCT (sugars k3 d10 k3, PS)	-15%
GATTATCCTGATATTG (sugars k3 d10 k3, PS)	4%
CTGTTAACAGCTGCCT (sugars k3 d10 k3, PS)	52%
TCTTGAATTACTTCCG (sugars k3 d10 k3, PS)	76% and 55%
GAGTATAAGCCTGAAA (sugars k3 d10 k3, PS)	16%
GTTATATTAGGTTCTC (sugars k3 d10 k3, PS)	7%
ACTTGGAAGTTGATAT (sugars k3 d10 k3, PS)	4%
CTGCACCACCAGAAAT (sugars k3 d10 k3, PS)	20%
GTTTAAGTCACCTTCA (sugars k3 d10 k3, PS)	63% and 38%
AACTTATCTGTTAACA (sugars k3 d10 k3, PS)	30%
AACCCCAAGACCAAAC (sugars k3 d10 k3, PS)	11%

Sequence	target mRNA inhibition
AAGCATTGCCCTTCTA (sugars k3 d10 k3, PS)	46%
GATTCCGTAACTTTAA (sugars k3 d10 k3, PS)	69% and 90%
TGCCAACTAATTGCCA (sugars k3 d10 k3, PS)	23%
GCTCATCACTTTATGA (sugars k3 d10 k3, PS)	10%
CTCACAAGGCAAATCG (sugars k3 d10 k3, PS)	-12%
CTGGATAAGTATTATA (sugars k3 d10 k3, PS)	28%
CAATGGACATCTCTTC (sugars k3 d10 k3, PS)	49%
CAGAAGTCTCGGGCTG (sugars k3 d10 k3, PS)	19%
CGGTACACTCCTTCTC (sugars k3 d10 k3, PS)	40%
CTACAACAAGTAAGCC (sugars k3 d10 k3, PS)	7%
GGACTCTTTTCCTATC (sugars k3 d10 k3, PS)	-4%
AATACTTCATTACCCC (sugars k3 d10 k3, PS)	45%
GCCTTCCCGTACTTCT (sugars k3 d10 k3, PS)	60% and 53%
GAGAACTGCTCTAGTT (sugars k3 d10 k3, PS)	34%
AAATCCCCTAGGGAAG (sugars k3 d10 k3, PS)	-8%
CTTCACCAAATCGCAC (sugars k3 d10 k3, PS)	-13%
TAGTTAATGTCAGCCC (sugars k3 d10 k3, PS)	41%
AGATTGCCCCAACACT (sugars k3 d10 k3, PS)	38%
TTACACCTTGAGTCAT (sugars k3 d10 k3, PS)	21%
TCAGACCTTCTGAACC (sugars k3 d10 k3, PS)	-6%
CACGCCAACACAGTTT (sugars k3 d10 k3, PS)	36%
TATTAAGAGCTGCTAT (sugars k3 d10 k3, PS)	25%
TCTTAACAGCTTATGG (sugars k3 d10 k3, PS)	31%

Sequence	target mRNA inhibition
CTGTCTAAGAGGTTAT (sugars k3 d10 k3, PS)	7%
TACAGAAGTCTCGGGC (sugars k3 d10 k3, PS)	28%
TGAGGGACAGTAGGTA (sugars k3 d10 k3, PS)	18%
CCTTCCGCCGCCTTTG (sugars k3 d10 k3, PS)	21%
CGCTGCGCTTAAGAGG (sugars k3 d10 k3, PS)	10%
AGTGTTCGCAGACAAA (sugars k3 d10 k3, PS)	34%
TGCCTTAAAGTTACAT (sugars k3 d10 k3, PS)	19%
TTCTAGCTTCAAGTAT (sugars k3 d10 k3, PS)	25%
GCATTACAGTTCTTGA (sugars k3 d10 k3, PS)	72% and 75%
GATCGCCTTCAAATTA (sugars k3 d10 k3, PS)	39%
GCTCTAGTTTCTATAA (sugars k3 d10 k3, PS)	27%
CTATTCCTTTCATAGA (sugars k3 d10 k3, PS)	-11%
AATTGCACTCGCTCCT (sugars k3 d10 k3, PS)	29%
ACGAAAGTCCTTCACA (sugars k3 d10 k3, PS)	11%
CACTTGCCAGTTTAAT (sugars k3 d10 k3, PS)	29%
GCTAAGATAGCAGCAC (sugars k3 d10 k3, PS)	29%
ACAGGAAGGCTCCATG (sugars k3 d10 k3, PS)	25%
ACACCTTGAGTCATTT (sugars k3 d10 k3, PS)	50%
TACAAAACGAATTCAG (sugars k3 d10 k3, PS)	20%
TACCAACCACTCGCTT (sugars k3 d10 k3, PS)	1%
CAAAACCCCCGGAACT (sugars k3 d10 k3, PS)	0%
TGCTTACACACAACTG (sugars k3 d10 k3, PS)	35%
CAATGCATTCTAATAG (sugars k3 d10 k3, PS)	18%

Sequence	target mRNA inhibition
TGACAAGCAATTAACT (sugars k3 d10 k3, PS)	28%
CAAGCTGAACTATCAC (sugars k3 d10 k3, PS)	27%
ACTCAGAAGATGTTAT (sugars k3 d10 k3, PS)	30%
TTAAACGGGTCATCAA (sugars k3 d10 k3, PS)	0%
CCTACCACTCTAAGAT (sugars k3 d10 k3, PS)	27%
CAGTCCTTTACAGAAG (sugars k3 d10 k3, PS)	12%
TGAAAACTCCCCCCCG (sugars k3 d10 k3, PS)	21%
CCGTCATGTTTTAGAA (sugars k3 d10 k3, PS)	58% and 61%
AACAACTCGCATCACC (sugars k3 d10 k3, PS)	17%
GCATACCTTAACATCT (sugars k3 d10 k3, PS)	54% and 44%
ATACTCTTCCAAGGAT (sugars k3 d10 k3, PS)	35%
ACGCCTCAATCCCACA (sugars k3 d10 k3, PS)	27%
CCCCCCCGCCTCAGTT (sugars k3 d10 k3, PS)	15%
GAAAGTCCTTCACATT (sugars k3 d10 k3, PS)	22%
GAATCCTGTCTGCTGC (sugars k3 d10 k3, PS)	33%
TTATTCCCCAATGGAG (sugars k3 d10 k3, PS)	18%
CCTAGCTTCATCAAAC (sugars k3 d10 k3, PS)	-2%
CTCTAACCCAGTTTGT (sugars k3 d10 k3, PS)	36%
TTACCAACCACTCGCT (sugars k3 d10 k3, PS)	2%
TTAATGCACTGGTACA (sugars k3 d10 k3, PS)	22%
CCATAACTGATCTGAC (sugars k3 d10 k3, PS)	13%
CACTGGATAAGTATTA (sugars k3 d10 k3, PS)	40%
GCCGACCTCACGGATT (sugars k3 d10 k3, PS)	45%

Sequence	target mRNA inhibition
CAAAACGAATTCAGGG (sugars k3 d10 k3, PS)	26%
CTGGCATGAGTTTATC (sugars k3 d10 k3, PS)	27%
AACCTATTGACTATAT (sugars k3 d10 k3, PS)	19%
CGCAACTGAGCCCCAG (sugars k3 d10 k3, PS)	18%
ACTCTGATCATAATCT (sugars k3 d10 k3, PS)	35%
TAGGTATAGTTTACCA (sugars k3 d10 k3, PS)	2%
AGATATTGTGCTGTTA (sugars k3 d10 k3, PS)	17%
TTGTGGTTATAGCTTG (sugars k3 d10 k3, PS)	68% and 93%
CTTCGCCTTCCCGTAC (sugars k3 d10 k3, PS)	35%
CTCAAATGCCTATCTT (sugars k3 d10 k3, PS)	19%
AACCACAACAATTTAG (sugars k3 d10 k3, PS)	16%
TCCCCAATCAAGATTT (sugars k3 d10 k3, PS)	18%
CAATTACCTAAACCCA (sugars k3 d10 k3, PS)	20%
TGTTACACCTTGAGTC (sugars k3 d10 k3, PS)	37%
CAAGAACTAGCACCTG (sugars k3 d10 k3, PS)	7%
GCAGGCTATTACCTGA (sugars k3 d10 k3, PS)	19%
AATCCTGATCTGGTCC (sugars k3 d10 k3, PS)	46% and 66%
CACCGCTTGAGATTTG (sugars k3 d10 k3, PS)	47% and 30% and 26%
TGGAACTTGAATGCAA (sugars k3 d10 k3, PS)	10%
CATTACCCCAACTAAA (sugars k3 d10 k3, PS)	15%
ATCTCCCACCTGTCTA (sugars k3 d10 k3, PS)	45%
TCAACATTTGGCCTAC (sugars k3 d10 k3, PS)	21%
